In assay [1] the test system is SW620 cells. Kind of assay: SW620 growth with anticancer drugs, MTT assay. The assay is classed as cell-based, human. The following applies: for growth inhibitory effect of the drug alone at lower dose: Etoposide 1 μg/ml, Cisplatin 1 μg/ml, 5-FU 0.1 μg/ml, Doxorubicin 0.01 μg/ml; for SW620 cell sensitivity to the drug: drug alone. How it is done: For cell viability assay, cells were seeded in wells of 96-well plates for 2 days and then treated with different concentrations of mushroom extract fractions or purified verticillin A for 2 days. The cells were then incubated with MTT (3-(4,5-dimethylthiazol-2-yl)-2,5-diphenyltetrazolium bromide) using the MTT assay kit (ATCC, Manassas, Va.) according to the manufacturer's instructions.
Etoposie, Cisplatin, 5-FU and Doxorubicin are commonly used cancer drugs that suppress tumor cell growth through their cytotoxicity. High cytotoxicity is often associated with high dose of their drugs. Furthermore, tumor cells often develop resistance to these cytotoxic drugs. To determine whether Verticillin A can increase the efficacy of these drugs and overcome drug resistance, the effectiveness of Verticillin A combined with these 4 drugs in suppression of tumor cell growth was tested in vitro. SW620 cell sensitivity to these drugs was first measured. SW620 cells are resistant to Etoposide but sensitive to 5-FU. […] SW620 cells were next pretreated with Verticillin A, followed by treatment with Etoposide (1 μg/ml), Cisplatin (1 μg/ml), 5-FU ([…]) and Doxorubicin (0.01 μg/ml), respectively.
A general note: Tetrazolium assays rely on reduction of a dye to a coloured formazan, in cell work by metabolically active cells.

In assay [2] the test system is BNIP3, IRF8, Neurog1, p15ink4b, RUNX3. Kind of assay: Expression of genes with methylated promoters. The assay is classed as cell-based, human. The following applies: SW620, AzadC 0-1.0 μM. How it is done: To determine whether verticillin A inhibits DNA methylation in other gene promoters, 4 other genes (IRF8, Neurog1, p15ink4b, RUNX3) with known promoter DNA methylation in human colon carcinoma cells were selected. SW620 cells were treated with AzadC (0-1.0 μM) and verticillin A (0-50 nM), respectively, and analyzed for the expression of BNIP3 and these 4 genes.

Assay [3] has as its system SW620 cells. Kind of assay: Exogenous ceramide and TRAIL-mediated apoptosis. The assay is classed as cell-based, human. The protocol: FIG. 8 is a bar graph showing cell death (%) of SW620 cells incubated with C16 ceramide for 2 h followed by treatment with TRAIL overnight. The tumor cells were then stained with PI and annex V and analyzed by flow cytometry. % apoptotic cells were calculated by the formula [% annexin V^+ cells of the TRAIL-treated cells-% annexin V^+ cells of untreated cells].
A-CDase catalyzes ceramide degradation to decrease ceramide level in the cells and overexpression of A-Cdase is often associated with apoptosis resistance in tumor cells (Elojeimy S, et al. Mol Ther 2007 15(7):1259-63; Liu X, et al. Front Biosci 2008 13:2293-8; Mao C, et al. Biochim Biophys Acta 2008 1781(9):424-34; Ogretmen B. FEBS Lett 2006 580(23):5467-76; Baran Y, et al. J Biol Chem 2007 282(15):10922-34). Inhibition of A-CDase activity is often associated with increased ceramide level and enhanced apoptosis sensitivity (Liu X, et al. Front Biosci 2008 13:2293-8; Ogretmen B. FEBS Lett 2006 580(23):5467-76; White-Gilbertson S, et al. Oncogene 2009 28(8):1132-41). Next, we examined the effect of exogenous ceramide on tumor cell sensitivity to TRAIL-mediated apoptosis. SW620 cells were incubated with different concentrations of C16 ceramide for 2 h and then treated with TRAIL.

For assay [4], the system named is Colon carcinoma (LS114N, T84, LS174T and SW620). In words: A-CDase inhibitor pre-treatment and TRAIL-induced apoptosis. The conditions noted are these: LCL85 pre-treatment prior to TRAIL. The format is cell-based. The protocol: A complementary approach was examined to determine the role of A-CDase in TRAIL resistance. Colon carcinoma (LS114N, T84, LS174T and SW620) were treated with A-CDase inhibitor LCL85 prior to TRAIL treatment and analyzed for apoptosis.

In another assay the test system is SW620 tumor xenograft. In words: SW620 tumor xenograft growth in athymic mice. The assay is classed as in vivo. The conditions noted are these: TRAIL single agent. How it is done: Athymic mice were subcutaneously inoculated with human hepatoma HepG2 and colon carcinoma SW620 cells, respectively. The tumor-bearing mice were randomized into experimental groups. The control mice were given saline. The treatment group was intravenously injected with verticillin A at the doses of 1 and 2 mg/kg body weight. Tumor size was measured in 2 diameter with micrometer caliper at the indicate times to permit calculation of tumor volume, V=(a×b^2)/2, where “a” is the length and “b” is the width in millimeters. At the end of the experiment, all the animals were sacrificed, The tumor inhibitory rates were calculated using the following formula: [(mean tumor volume of control nude mice−mean tumor volume of treated nude mice)/mean tumor volume of control nude mice]×100%.
The disclosed observations indicate that verticillin A can dramatically increase TRAIL-induced tumor cell apoptosis. To determine whether these in vitro observations can be extended to enhance TRAIL-mediated tumor suppression in vivo, SW620 cells were injected subcutaneously to athymic mice, verticillin A and TRAIL, either used as single agent or in combination, were then injected to the tumor-bearing mice. Tumor growth rate were measured in different time points. Verticillin A can inhibit tumor cell growth in vitro at high dose and sensitize tumor cells to TRAIL-induced apoptosis at a low dose. […] As expected, SW620 tumors are resistant to TRAIL (Voelkel-Johnson C, et al. Mol Cancer Ther 2005 4(9):1320-7).

For assay [5], the system named is SW620 cells. In words: Apoptosis and TRAIL sensitization of SW620 cells (PI/annexin V flow cytometry). The assay is classed as cell-based, human. The following applies: SW620, agent alone. The protocol: Cells were seeded in wells of 96-well plates for 2 days and then treated with different concentrations of mushroom extract fractions or purified verticillin A for 2 days. The cells were stained with propidium iodide (PI) (Trevigen, Gaithersburg, Md.) or PI plus annexin V-Alex Fluor 647 (Biolegend, San Diego, Calif.) and analyzed by flow cytometry.
SW620 is a metastatic human colon carcinoma cell line that is resistant to TRAIL-induced apoptosis (Voelkel-Johnson C, et al. Mol Cancer Ther 2005 4(9):1320-7).
On the technique in general: In flow cytometry, cells or beads pass a laser one at a time.

For the molecule `O=c1[nH]cc(F)c(=O)[nH]1` [5-FU], in the assay on SW620 cells [1], the “growth inhibitory effect of the drug alone at lower dose” value is listed as “minimal inhibitory effects” and the “SW620 cell sensitivity to the drug” value is given as “sensitive”. As to `Nc1ncn([C@H]2C[C@H](O)[C@@H](CO)O2)c(=O)n1` [AzadC, reference compound], in assay [2], the “expression levels of BNIP3, IRF8, Neurog1, p15ink4b, RUNX3” value is recorded as “dramatically increased”. As to `CCCCCCCCCCCCC/C=C/[C@@H](O)[C@H](CO)NC(=O)CCCCCCCCCCCCCCC` [C16 ceramide], in the assay with SW620 cells [3] (SW620, C16 ceramide 2 h then TRAIL), the “tumor cell sensitivity to TRAIL-mediated apoptosis” value is listed as “dramatically increased the tumor cell sensitivity to TRAIL-mediated apoptosis”. Besides, the apoptosis-inducing activity entry in the assay with SW620 cells [3] (SW620, C16 ceramide alone) was “exhibited apoptosis-inducing activity at a dose-dependent manner”.

For the molecule `N.N.[Cl][Pt][Cl]` [Cisplatin], in the assay on SW620 cells [1], the “growth inhibitory effect of the drug alone at lower dose” value is “minimal inhibitory effects” and the “SW620 cell sensitivity to the drug” value is recorded as “only sensitive to high doses”. The corresponding values for `COc1cccc2c1C(=O)c1c(O)c3c(c(O)c1C2=O)C[C@@](O)(C(=O)CO)C[C@@H]3O[C@H]1C[C@H](N)[C@H](O)[C@H](C)O1` [Doxorubicin] are “minimal inhibitory effects” and “only sensitive to high doses”. In the case of `COc1cc([C@@H]2c3cc4c(cc3[C@@H](O[C@@H]3O[C@@H]5CO[C@@H](C)O[C@H]5[C@H](O)[C@H]3O)[C@H]3COC(=O)[C@H]23)OCO4)cc(OC)c1O` [Etoposide], in the assay on SW620 cells [1], the “growth inhibitory effect of the drug alone at lower dose” value was “minimal inhibitory effects” and the “SW620 cell sensitivity to the drug” value is given as “resistant”. With `O=C(CCCCCCCCCCCCCCC[n+]1ccccc1)N[C@H](CO)[C@H](O)c1ccc([N+](=O)[O-])cc1.[Br-]` [LCL85, (1R,2R)-2_N-[16-(1′-pyridinium)-hexadecanoylamino)-1-(4′-nitrophenyl)-1,3-propandiol bromide], the “sensitivity of tumor cells to TRAIL-induced apoptosis” value in assay [4] is “significantly increased the sensitivity of tumor cells to TRAIL-induced apoptosis”.

B1: TRAIL: TNF-related apoptosis-inducing ligand; recombinant TRAIL protein expressed and purified from E. coli (protein, UniProt P50591 1-281, looked up)
Tumor necrosis factor ligand …: MAMMEVQGGPSLGQTCVLIVIFTVLLQSLCVAVTYVYFTNELKQMQDKYSKSGIACFLKEDDSYWDPNDEESMNSPCWQVKWQLRQLVRKMILRTSEETISTVQEKQQNISPLVRERGPQRVAAHITGTRGRSNTLSSPNSKNEKALGRKINSWESSRSGHSFLSNLHLRNGELVIHEKGFYYIYSQTYFRFQEEIKENTKNDKQMVQYIYKYTSYPDPILLMKSARNSCWSKDAEYGLYSIYQGGIFELKENDRIFVSVTNEHLIDMDHEASFFGAFLVG
As for B1, in the assay on SW620 tumor xenograft, the “SW620 tumor response to TRAIL alone” value is recorded as “resistant”. Moreover, the “apoptosis induction, single agent” value in the assay with SW620 cells [5] is on record as “no apoptosis induction activity”.

The values are drawn from patent US20120219568A1, “EPIDITHIODIOXO[…] USES THEREOF IN TREATING CANCER” (priority 2011, published 2012).
